These molecules were tested against T1, KRAS G12C 1-169, his-tagged protein, GDP-loaded (Homo sapiens, UniProt P01116, G12C) (assay: Biochemical assay: covalent modification of KRAS G12C measured by mass spectrometry (RapidFire/TOF or Q-Exactive)). Conditions: covalent binding to (modification of) KRAS G12C after a ten minute incubation period.
T1 construct: KRAS G12C 1-169, his-tagged protein, GDP-loaded
Type: binding
Procedure, shortened: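 GDP-loaded KRAS G12C 1-169 (his-tagged) at 2 μM or 0.5 μM in 20 mM Hepes, 150 mM NaCl, 1 mM MgCl2, incubated with compound at 100, 30 or 10 μM at room temperature for 10 min, 30 min, 2 h or 24 h, then quenched with formic acid. Intact-protein LC-MS, deconvolved; percent modification from modified versus unmodified protein.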

Q: How did the Binding % turn out when `C=CC(=O)N1C[C@H](C)N(c2nc(OC[C@H]3CC(F)(F)CN3C)nc3c(F)c(-c4c(C)ccc5cnn(C)c45)c(Cl)cc23)C[C@H]1C` [Compound 241, 1-((2R,5S)-4-(6-chloro-2-(((R)-4,4-difluoro-1-methylpyrrolidin-2-yl)methoxy)-7-(1,6-dimethyl-1H-indazol-7-yl)-8-fluoroquinazolin-4-yl)-2,5-dimethylpiperazin-1-yl)prop-2-en-1-one] was run?
A: The Binding % was “+ (+ indicates binding activity greater than 0% and up to 50%)”.

Q: Which Binding % does the source give for `C=CC(=O)N1C[C@H](C)N(c2nc(N3CC(C(N)=O)C3)nc3c(F)c(-c4c(C)ccc5cnn(C)c45)c(Cl)cc23)C[C@H]1C` [Compound 244, 1-(4-((2S,5R)-4-acryloyl-2,5-dimethylpiperazin-1-yl)-6-chloro-7-(1,6-dimethyl-1H-indazol-7-yl)-8-fluoroquinazolin-2-yl)azetidine-3-carboxamide] here?
A: The Binding % was “++ (++ indicates binding activity from 50 to 80%)”.

Q: How did the Binding % turn out when `C=CC(=O)N1C[C@H](C)N(c2nc(OC[C@@H]3CCCN3C(C)C)nc3c(F)c(-c4c(C)ccc5[nH]nc(C)c45)c(Cl)cc23)C[C@H]1C` [Compound 247, 1-((2R,5S)-4-(6-chloro-7-(3,5-dimethyl-1H-indazol-4-yl)-8-fluoro-2-(((S)-1-isopropylpyrrolidin-2-yl)methoxy)quinazolin-4-yl)-2,5-dimethylpiperazin-1-yl)prop-2-en-1-one] was run?
A: Its Binding % is “++ (++ indicates binding activity from 50 to 80%)”.

Q: Which Binding % does the source give for `C=CC(=O)N1C[C@H](C)N(c2nc(NC(C)=O)nc3c(F)c(-c4c(C)ccc5cnn(C)c45)c(Cl)cc23)C[C@H]1C` [Compound 256, N-(4-((2S,5R)-4-acryloyl-2,5-dimethylpiperazin-1-yl)-6-chloro-7-(1,6-dimethyl-1H-indazol-7-yl)-8-fluoroquinazolin-2-yl)acetamide] here?
A: Its Binding % is “++ (++ indicates binding activity from 50 to 80%)”.

Q: How did the Binding % turn out when `C=CC(=O)N1C[C@H](C)N(c2nc(N3CC(C(N)=O)C3)nc3c(F)c(-c4c(C)ccc5[nH]nc(C6CC6)c45)c(Cl)cc23)C[C@H]1C` [Compound 257, 1-(4-((2S,5R)-4-acryloyl-2,5-dimethylpiperazin-1-yl)-6-chloro-7-(3-cyclopropyl-5-methyl-1H-indazol-4-yl)-8-fluoroquinazolin-2-yl)azetidine-3-carboxamide] was run?
A: The Binding % was “++ (++ indicates binding activity from 50 to 80%)”.

Q: For `C=CC(=O)N1C[C@H](C)N(c2nc(C#CCOC)nc3c(F)c(-c4c(C)ccc5cnn(C)c45)c(Cl)cc23)C[C@H]1C` [Compound 258, 1-((2R,5S)-4-(6-chloro-7-(1,6-dimethyl-1H-indazol-7-yl)-8-fluoro-2-(3-methoxyprop-1-ynyl)quinazolin-4-yl)-2,5-dimethylpiperazin-1-yl)prop-2-en-1-one], which Binding % is on record?
A: Its Binding % is “+++ (+++ indicates binding activity greater than 80%)”.

Q: Which Binding % does the source give for `C=CC(=O)N1C[C@H](C)N(c2nc(NC(C)=O)nc3c(F)c(-c4c(C)ccc5[nH]nc(C6CC6)c45)c(Cl)cc23)C[C@H]1C` [Compound 259, N-(4-((2S,5R)-4-acryloyl-2,5-dimethylpiperazin-1-yl)-6-chloro-7-(3-cyclopropyl-5-methyl-1H-indazol-4-yl)-8-fluoroquinazolin-2-yl)acetamide] here?
A: Its Binding % is “++ (++ indicates binding activity from 50 to 80%)”.

Q: With `C=CC(=O)N1C[C@H](C)N(c2nc(NC(=O)CN(C)C)nc3c(F)c(-c4c(C)ccc5cnn(C)c45)c(Cl)cc23)C[C@H]1C` [Compound 260, N-(4-((2S,5R)-4-acryloyl-2,5-dimethylpiperazin-1-yl)-6-chloro-7-(1,6-dimethyl-1H-indazol-7-yl)-8-fluoroquinazolin-2-yl)-2-(dimethylamino)aceta-mide] as the molecule, how does the Binding % read?
A: Its Binding % is “+++ (+++ indicates binding activity greater than 80%)”.

Q: Which Binding % does the source give for `C=CC(=O)N1C[C@H](C)N(c2nc(N3CC(N(C)C)C3)nc3c(F)c(-c4cccc5c4N(C)C(=O)C5)c(Cl)cc23)C[C@H]1C` [Compound 262, 7-(4-((2S,5R)-4-acryloyl-2,5-dimethylpiperazin-1-yl)-6-chloro-2-(3-(dimethylamino)azetidin-1-yl)-8-fluoroquinazolin-7-yl)-1-methylindolin-2-one] here?
A: Its Binding % is “+ (+ indicates binding activity greater than 0% and up to 50%)”.

Q: How did the Binding % turn out when `C=CC(=O)N1C[C@H](C)N(c2nc(N3CC(N(C)C)C3)nc3c(F)c(-c4c(C)ccc5c4NC(=O)C5)c(Cl)cc23)C[C@H]1C` [Compound 263, 7-(4-((2S,5R)-4-acryloyl-2,5-dimethylpiperazin-1-yl)-6-chloro-2-(3-(dimethylamino)azetidin-1-yl)-8-fluoroquinazolin-7-yl)-6-methylindolin-2-one] was run?
A: The Binding % was “+ (+ indicates binding activity greater than 0% and up to 50%)”.

Q: `C=CC(=O)N1C[C@H](C)N(c2nc(OC3CC(N(C)C)C3)nc3c(F)c(-c4c(C)ccc5[nH]ncc45)c(Cl)cc23)C[C@H]1C` (stereo partly drawn) [Compound 264, 1-((2R,5S)-4-(6-chloro-2-(3-(dimethylamino)cyclo-butoxy)-8-fluoro-7-(5-methyl-1H-indazol-4-yl)quinazolin-4-yl)-2,5-dimethylpiperazin-1-yl)prop-2-en-1-one] was tested. Which Binding % did it give?
A: The Binding % was “+++ (+++ indicates binding activity greater than 80%)”.

Q: Which Binding % does the source give for `C=CC(=O)N1C[C@H](C)N(c2nc(N3CC(N(C)C)C3)nc3c(F)c(N4CCCc5ccccc54)c(Cl)cc23)C[C@H]1C` [Compound 265, 1-((2R,5S)-4-(6-chloro-7-(3,4-dihydroquinolin-1(2H)-yl)-2-(3-(dimethylamino)azetidin-1-yl)-8-fluoroquinazolin-4-yl)-2,5-dimethylpiperazin-1-yl)prop-2-en-1-one] here?
A: Its Binding % is “++ (++ indicates binding activity from 50 to 80%)”.

Q: With `C=CC(=O)N1CCN(c2nc(N3CC(N(C)C)C3)nc3c(F)c(-c4c(C)ccc5cn[nH]c45)c(Cl)cc23)CC1CC#N` (stereo not drawn) [Compound 266, 2-(1-acryloyl-4-(6-chloro-2-(3-(dimethylamino)azetidin-1-yl)-8-fluoro-7-(6-methyl-1H-indazol-7-yl)quinazolin-4-yl)piperazin-2-yl)acetonitrile] as the molecule, how does the Binding % read?
A: Its Binding % is “++ (++ indicates binding activity from 50 to 80%)”.

Q: For `C=CC(=O)N1CCN(c2nc(N3CC(N(C)C)C3)nc3c(F)c(-c4c(C)ccc5[nH]ncc45)c(Cl)cc23)CC1CC#N` (stereo not drawn) [Compound 267, 2-(1-acryloyl-4-(6-chloro-2-(3-(dimethyalmino)azetidin-1-yl)-8-fluoro-7-(5-methyl-1H-indazol-4-yl)quinazolin-4-yl)piperazin-2-yl)acetonitrile], which Binding % is on record?
A: Its Binding % is “+++ (+++ indicates binding activity greater than 80%)”.

Q: With `C=CC(=O)N1CCN(c2nc(OC[C@@H]3CCCN3C)nc3c(F)c(-c4c(C)ccc5cn[nH]c45)c(Cl)cc23)CC1CC#N` (stereo partly drawn) [Compound 268, 2-(1-acryloyl-4-(6-chloro-8-fluoro-7-(6-methyl-1H-indazol-7-yl)-2-(((S)-1-methylpyrrolidin-2-yl)methoxy)quinazolin-4-yl)piperazin-2-yl)acetonitrile] as the molecule, how does the Binding % read?
A: Its Binding % is “+++ (+++ indicates binding activity greater than 80%)”.

Q: With `C=CC(=O)N1CCN(c2nc(N3CC(N(C)C)C3)nc3c(F)c(-c4c(C)ccc5cnn(C)c45)c(Cl)cc23)CC1CC#N` (stereo not drawn) [Compound 269, 2-(1-acryloyl-4-(6-chloro-7-(1,6-dimethyl-1H-indazol-7-yl)-2-(3-(dimethylamino)azetidin-1-yl)-8-fluoroquinazolin-4-yl)piperazin-2-yl)acetonitrile] as the molecule, how does the Binding % read?
A: Its Binding % is “+++ (+++ indicates binding activity greater than 80%)”.

Q: Which Binding % does the source give for `C=CC(=O)N1CCN(c2nc(N3CC(N(C)C)C3)nc3c(F)c(-c4c(C)ccc5[nH]nc(C)c45)c(Cl)cc23)CC1CC#N` (stereo not drawn) [Compound 270, 2-(1-acryloyl-4-(6-chloro-7-(3,5-dimethyl-1H-indazol-4-yl)-2-(3-(dimethylamino)azetidin-1-yl)-8-fluoroquinazolin-4-yl)piperazin-2-yl)acetonitrile] here?
A: Its Binding % is “+++ (+++ indicates binding activity greater than 80%)”.

Q: How did the Binding % turn out when `C=CC(=O)N1CCN(c2nc(OC[C@@H]3CCCN3C)nc3c(F)c(-c4c(C)ccc5[nH]ncc45)c(Cl)cc23)CC1CC#N` (stereo partly drawn) [Compound 271, 2-(1-acryloyl-4-(6-chloro-8-fluoro-7-(5-methyl-1H-indazol-4-yl)-2-(((S)-1-methylpyrrolidin-2-yl)methoxy)quinazolin-4-yl)piperazin-2-yl)acetonitrile] was run?
A: Its Binding % is “+++ (+++ indicates binding activity greater than 80%)”.
